Reference: patent publication US6914045B2, “Glycopeptide antibiotics” (Wyeth Holdings Corporation, priority 2001, dated 2005)
≈ marks a conversion by molar mass, not a printed value.

Experiments:
Assay in all cases: in vitro antibacterial evaluation, MIC by broth dilution
Format in all cases: cell-based
Enterococcus sp. = settings: broth dilution, 18 hours at 35° C.
Summary of the method: (§1)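 Following National Committee for Clinical Laboratory Standards recommendations (M7-A2), susceptibility was measured by dilution in Muller-Hinton II […]. Bacteria were seeded at 5×10^5 CFU/mL against compound concentrations from 64 down to 0.06 μg/mL.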

Staphylococcus sp. = settings: broth dilution, 18 hours at 35° C.
Summary of the method: as §1

Streptococcus sp. = settings: broth dilution, 18 hours at 35° C.
Summary of the method: as §1

Escherichia coli = settings: 18 hours at 35° C.

MIC Enterococcus avium (GC 4558) (Enterococcus sp.): 4 µg/mL (≈ 2.71 µM) | MIC Enterococcus faecalis (ATCC 29212) (Enterococcus sp.): 8 µg/mL (≈ 5.43 µM) | MIC Enterococcus faecalis (GC 2242) (Enterococcus sp.): 8 µg/mL (≈ 5.43 µM) | MIC Enterococcus faecalis (GC 2691) (Enterococcus sp.): 8 µg/mL (≈ 5.43 µM) | MIC Enterococcus faecalis (GC 3059) (Enterococcus sp.): 8 µg/mL (≈ 5.43 µM) | MIC Enterococcus faecalis (GC 4552) (Enterococcus sp.): 8 µg/mL (≈ 5.43 µM) | MIC Enterococcus faecalis (GC 4553) (Enterococcus sp.): 8 µg/mL (≈ 5.43 µM) | MIC Enterococcus faecalis (GC 4554) (Enterococcus sp.): 8 µg/mL (≈ 5.43 µM) | MIC Enterococcus faecalis (GC 6189) (Enterococcus sp.): 8 µg/mL (≈ 5.43 µM) | MIC Enterococcus faecium (GC 2243) (Enterococcus sp.): 4 µg/mL (≈ 2.71 µM) | MIC Enterococcus faecium (GC 4556) (Enterococcus sp.): 8 µg/mL (≈ 5.43 µM) | MIC Enterococcus faecium (GC 4557) (Enterococcus sp.): 4 µg/mL (≈ 2.71 µM) | MIC Enterococcus faecalis (ATCC 29212) (Enterococcus sp.; inoculum 5×10^5 CFU/mL, strain ATCC 29212): 8 µg/mL (≈ 5.43 µM) | MIC Enterococcus faecalis (GC 2242) (Enterococcus sp.; inoculum 5×10^5 CFU/mL, strain GC 2242): 8 µg/mL (≈ 5.43 µM) | MIC Enterococcus faecium (GC 2243) (Enterococcus sp.; inoculum 5×10^5 CFU/mL, strain GC 2243): 4 µg/mL (≈ 2.71 µM) | MIC Enterococcus faecalis (GC 2691) (Enterococcus sp.; inoculum 5×10^5 CFU/mL, strain GC 2691): 8 µg/mL (≈ 5.43 µM) | MIC Enterococcus faecalis (GC 3059) (Enterococcus sp.; inoculum 5×10^5 CFU/mL, strain GC 3059): 8 µg/mL (≈ 5.43 µM) | MIC Enterococcus faecalis (GC 4552) (Enterococcus sp.; inoculum 5×10^5 CFU/mL, strain GC 4552): 8 µg/mL (≈ 5.43 µM) | MIC Enterococcus faecalis (GC 4553) (Enterococcus sp.; inoculum 5×10^5 CFU/mL, strain GC 4553): 8 µg/mL (≈ 5.43 µM) | MIC Enterococcus faecalis (GC 4554) (Enterococcus sp.; inoculum 5×10^5 CFU/mL, strain GC 4554): 8 µg/mL (≈ 5.43 µM) | MIC Enterococcus faecium (GC 4556) (Enterococcus sp.; inoculum 5×10^5 CFU/mL, strain GC 4556): 8 µg/mL (≈ 5.43 µM) | MIC Enterococcus faecium (GC 4557) (Enterococcus sp.; inoculum 5×10^5 CFU/mL, strain GC 4557): 4 µg/mL (≈ 2.71 µM) | MIC Enterococcus avium (GC 4558) (Enterococcus sp.; inoculum 5×10^5 CFU/mL, strain GC 4558): 4 µg/mL (≈ 2.71 µM) | MIC Enterococcus faecalis (GC 6189) (Enterococcus sp.; inoculum 5×10^5 CFU/mL, strain GC 6189): 8 µg/mL (≈ 5.43 µM) | MIC Staphylococcus aureus (ATCC 29213) (Staphylococcus sp.; strain ATCC 29213): 4 µg/mL (≈ 2.71 µM) | MIC Staphylococcus aureus (GC 1131) (Staphylococcus sp.; strain GC 1131): 4 µg/mL (≈ 2.71 µM) | MIC Staphylococcus aureus (GC 3051) (Staphylococcus sp.; strain GC 3051): 8 µg/mL (≈ 5.43 µM) | MIC Staphylococcus aureus (GC 3053) (Staphylococcus sp.; strain GC 3053): 4 µg/mL (≈ 2.71 µM) | MIC Staphylococcus aureus (GC 4541) (Staphylococcus sp.; strain GC 4541): 4 µg/mL (≈ 2.71 µM) | MIC Staphylococcus aureus (GC 4542) (Staphylococcus sp.; strain GC 4542): 8 µg/mL (≈ 5.43 µM) | MIC Staphylococcus aureus-SMITH (GC 4543) (Staphylococcus sp.; strain GC 4543): 4 µg/mL (≈ 2.71 µM) | MIC Staphylococcus aureus (GC 4544) (Staphylococcus sp.; strain GC 4544): 8 µg/mL (≈ 5.43 µM) | MIC Staphylococcus aureus (GC 4545) (Staphylococcus sp.; strain GC 4545): 4 µg/mL (≈ 2.71 µM) | MIC Coagulase Negative Staphylococcus (GC 4547) (Staphylococcus sp.; strain GC 4547): 4 µg/mL (≈ 2.71 µM) | MIC Coagulase Negative Staphylococcus (GC 4548) (Staphylococcus sp.; strain GC 4548): 4 µg/mL (≈ 2.71 µM) | MIC Coagulase Negative Staphylococcus (GC 4549) (Staphylococcus sp.; strain GC 4549): 2 µg/mL (≈ 1.36 µM) | MIC Coagulase Negative Staphylococcus (GC 4551) (Staphylococcus sp.; strain GC 4551): 4 µg/mL (≈ 2.71 µM) | MIC Coagulase Negative Staphylococcus (GC 6257) (Staphylococcus sp.; strain GC 6257): 4 µg/mL (≈ 2.71 µM) | MIC Streptococcus agalactiae (GC 4564) (Streptococcus sp.): 2 µg/mL (≈ 1.36 µM) | MIC Streptococcus pneumoniae (ATCC 6301) (Streptococcus sp.): 0.5 µg/mL (≈ 0.339 µM) | MIC Streptococcus pneumoniae (GC 1894) (Streptococcus sp.): <0.06 µg/mL | MIC Streptococcus pneumoniae (GC 4565) (Streptococcus sp.): 0.25 µg/mL (≈ 0.17 µM) | MIC Streptococcus pyogenes (GC 4563) (Streptococcus sp.): 1 µg/mL (≈ 0.679 µM) | MIC Streptococcus pneumoniae (ATCC 6301) (Streptococcus sp.; inoculum 5×10^5 CFU/mL, strain ATCC 6301): 0.5 µg/mL (≈ 0.339 µM) | MIC Streptococcus pneumoniae (GC 1894) (Streptococcus sp.; inoculum 5×10^5 CFU/mL, strain GC 1894): <0.06 µg/mL | MIC Streptococcus pyogenes (GC 4563) (Streptococcus sp.; inoculum 5×10^5 CFU/mL, strain GC 4563): 1 µg/mL (≈ 0.679 µM) | MIC Streptococcus agalactiae (GC 4564) (Streptococcus sp.; inoculum 5×10^5 CFU/mL, strain GC 4564): 2 µg/mL (≈ 1.36 µM) | MIC Streptococcus pneumoniae (GC 4565) (Streptococcus sp.; inoculum 5×10^5 CFU/mL, strain GC 4565): 0.25 µg/mL (≈ 0.17 µM) | MIC Escherichia coli (ATCC 25922) (Escherichia coli): >64 µg/mL | MIC Escherichia coli (GC 4559) (Escherichia coli): >64 µg/mL | MIC Escherichia coli (GC 4560) (Escherichia coli): 16 µg/mL (≈ 10.9 µM)
Structure (SMILES): CC(c1ccccc1)C1NC(=O)CNC(=O)C(CO)NC(=O)C(C(O)C2CNC(=N)N2C2OC(CO)C(O)C(O)C2O)NC(=O)C(C(O)C2CNC(=N)N2)NC(=O)C(Cc2ccc(OC3OC(CO)C(OC4OC(CO)C(O)C5OC6(CCCCCCCCCCCC6)OC45)C(O)C3O)cc2)NC1=O (stereo not shown) [Example 210a]
MIC Staphylococcus haemolyticus (GC 4546) (Staphylococcus sp.; strain GC 4546): 8 µg/mL (≈ 5.43 µM)
